Consider 61 compounds from patent US20250090540A1, “PI3K-ALPHA INHIBITORS AND METHODS OF USE THEREOF” (Relay Therapeutics, Inc., priority 2021, published 2025).

The term IC50 denotes the point on the concentration scale where inhibition reaches its midpoint. A high value points to weaker potency.

The first experiment deals with H1047R PIK3CA enzyme (Homo sapiens, UniProt P42336, H1047R). Nature of the experiment: ADP-Glo Biochemical PIK3CA Kinase Assay.
Sequence of H1047R PIK3CA enzyme (P42336 whole entry H1047R): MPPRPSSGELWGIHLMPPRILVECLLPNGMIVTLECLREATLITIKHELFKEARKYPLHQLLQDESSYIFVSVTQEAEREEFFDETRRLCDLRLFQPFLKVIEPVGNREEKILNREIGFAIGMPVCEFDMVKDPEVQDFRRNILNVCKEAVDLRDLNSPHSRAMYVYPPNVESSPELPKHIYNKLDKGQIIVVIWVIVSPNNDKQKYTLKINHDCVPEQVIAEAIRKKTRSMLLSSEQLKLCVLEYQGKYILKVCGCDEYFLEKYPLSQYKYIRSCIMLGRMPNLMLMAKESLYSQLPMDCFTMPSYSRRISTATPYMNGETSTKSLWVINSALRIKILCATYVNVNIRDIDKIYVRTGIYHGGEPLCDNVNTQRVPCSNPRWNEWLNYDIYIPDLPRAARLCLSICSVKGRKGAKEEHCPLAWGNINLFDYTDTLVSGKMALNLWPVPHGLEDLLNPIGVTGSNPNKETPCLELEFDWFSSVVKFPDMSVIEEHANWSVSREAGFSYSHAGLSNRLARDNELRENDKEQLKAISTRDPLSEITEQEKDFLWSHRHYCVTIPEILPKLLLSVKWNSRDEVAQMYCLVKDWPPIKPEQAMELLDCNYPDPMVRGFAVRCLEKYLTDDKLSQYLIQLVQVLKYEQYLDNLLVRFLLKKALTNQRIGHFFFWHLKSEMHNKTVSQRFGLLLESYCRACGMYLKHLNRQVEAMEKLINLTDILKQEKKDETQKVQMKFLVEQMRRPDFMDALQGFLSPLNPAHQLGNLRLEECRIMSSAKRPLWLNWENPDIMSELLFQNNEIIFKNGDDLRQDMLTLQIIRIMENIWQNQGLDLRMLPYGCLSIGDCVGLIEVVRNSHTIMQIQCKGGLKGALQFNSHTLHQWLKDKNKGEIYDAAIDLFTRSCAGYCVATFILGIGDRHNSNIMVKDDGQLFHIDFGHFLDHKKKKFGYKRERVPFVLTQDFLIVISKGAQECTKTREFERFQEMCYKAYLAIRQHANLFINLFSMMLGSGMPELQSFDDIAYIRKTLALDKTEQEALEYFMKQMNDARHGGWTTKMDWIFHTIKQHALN
Sequence of H1047R PIK3CA enzyme (P27986 whole entry partner): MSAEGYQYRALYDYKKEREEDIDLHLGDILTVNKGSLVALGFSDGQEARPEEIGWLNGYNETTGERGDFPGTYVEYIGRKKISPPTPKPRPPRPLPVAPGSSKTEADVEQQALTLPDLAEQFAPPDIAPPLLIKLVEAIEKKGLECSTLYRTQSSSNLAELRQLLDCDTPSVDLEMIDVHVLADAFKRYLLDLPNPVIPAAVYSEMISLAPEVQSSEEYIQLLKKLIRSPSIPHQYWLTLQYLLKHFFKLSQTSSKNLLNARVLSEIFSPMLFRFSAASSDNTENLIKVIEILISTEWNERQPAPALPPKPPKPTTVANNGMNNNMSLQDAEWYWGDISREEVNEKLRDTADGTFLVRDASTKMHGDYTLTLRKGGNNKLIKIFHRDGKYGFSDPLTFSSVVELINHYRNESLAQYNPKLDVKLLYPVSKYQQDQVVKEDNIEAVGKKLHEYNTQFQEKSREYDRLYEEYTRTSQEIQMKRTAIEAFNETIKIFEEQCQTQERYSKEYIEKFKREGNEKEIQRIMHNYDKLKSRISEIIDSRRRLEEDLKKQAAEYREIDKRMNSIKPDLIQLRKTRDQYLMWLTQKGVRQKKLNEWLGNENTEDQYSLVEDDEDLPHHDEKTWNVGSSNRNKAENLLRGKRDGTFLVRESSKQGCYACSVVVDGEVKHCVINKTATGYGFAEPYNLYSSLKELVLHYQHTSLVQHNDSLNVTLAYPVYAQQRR
Settings: not given
How it is done:
Compounds to be assayed were plated in 16 doses of 1:2 serial dilutions (20 nL volume each well) on a 1536-well plate, and the plate warmed to room temperature. PIK3CA enzyme (e.g. H1047R, E542K, E545K, or wild-type) (1 μL of 2 nM solution in Enzyme Assay Buffer (comprising 50 mM HEPES pH 7.4, 50 mM NaCl, 6 mM MgCl2, 5 mM DTT and 0.03% CHAPS)) was added and shaken for 10 seconds and preincubated for 30 minutes. To the well was added 1 μL of 200 μM ATP and 20 μM of diC8-PIP2 in Substrate Assay Buffer (50 mM HEPES pH7.4, 50 mM NaCl, 5 mM DTT and 0.03% CHAPS) to start the reaction, and the plate was shaken for 10 seconds, then spun briefly at 1500 rpm, and then incubated for 60 minutes at room temperature. The reaction was stopped by adding 2 μL of ADP-Glo reagent (Promega), and spinning briefly at 1500 rpm, and then incubating for 40 minutes. ADP-Glo Detection reagent (Promega) was added and the plate spun briefly at 1500 rpm, then incubated for 30 minutes.
For orientation: ADP-Glo first removes unused ATP, then detects ADP through luciferase.
`Cc1ccccc1N[C@H]1CCN(C(=O)OC(C)(C)C)C[C@H]1C(=O)Nc1cc(F)cc(C(F)(F)F)c1` (racemic) [I-68] gave an IC50 of 10 to 100 µM.
`Cc1ccccc1N[C@H]1CCN(C(=O)OC(C)(C)C)C[C@@H]1C(=O)Nc1cc(F)cc(C(F)(F)F)c1` (racemic) [I-156]: the IC50 was in the range of 10 to 100 µM.
Same read-out and setting: then `CNC(=O)N1CC[C@H](Nc2ccccc2C)[C@H](C(=O)Nc2cc(F)cc(C(F)(F)F)c2)C1` (racemic) [I-203], with 10 to 100 µM; and `Cc1ccccc1N[C@H]1CCN(C(=O)C2(O)CC2)C[C@H]1C(=O)Nc1cc(F)cc(C(F)(F)F)c1` (racemic) [I-227], with 10 to 100 µM.
Same read-out and setting: then `Cc1ccccc1N[C@H]1CCN(C(=O)C2(O)CC2)C[C@@H]1C(=O)Nc1cc(F)cc(C(F)(F)F)c1` (racemic) [I-228], with 10 to 100 µM.
The compound `CNC(=O)N1CC[C@@H](Nc2ccccc2C)[C@H](C(=O)Nc2cc(F)cc(C(F)(F)F)c2)C1` (racemic) [I-229] displayed an IC50 of 10 to 100 µM.
On the same count and under the same terms, then `Cc1ccccc1N[C@H]1CCN(C(=O)CC2CCOCC2)C[C@H]1C(=O)Nc1cc(F)cc(C(F)(F)F)c1` (racemic) [I-251], with 10 to 100 µM; and `Cc1ccccc1N[C@H]1CCN(C2CCC2)C[C@H]1C(=O)Nc1cc(F)cc(C(F)(F)F)c1` (racemic) [I-252], with 10 to 100 µM; and `CNC(=O)c1cnc(N2C[C@H]3C[C@H]3c3ccccc32)c(NC(=O)c2csc3ccccc23)c1` (racemic) [I-253], with 1 to 10 µM.
On the same count and under the same terms, then `Cc1ccccc1N[C@H]1CCN(C(=O)CC2CCOCC2)C[C@@H]1C(=O)Nc1cc(F)cc(C(F)(F)F)c1` (racemic) [I-254], with 10 to 100 µM; and `O=C(NC1CS(=O)(=O)C1)c1cnc(N2C[C@H]3C[C@H]3c3ccccc32)c(NC(=O)c2csc3ccccc23)c1` (racemic) [I-255], with 0.5 to 1 µM; and `C[C@@H](NC(=O)c1cnc(N2CCCOc3ccccc32)c(NC(=O)c2csc3ccccc23)c1)c1cccnc1` (racemic) [I-278], with 1 to 10 µM.
As for `CC1CN(c2ncc(C(=O)N[C@H](C)c3cccnc3)cc2NC(=O)c2csc3ccccc23)c2ccccc2O1` (mixture of isomers) [I-336], the IC50 lay within 1 to 10 µM.
Consider `CN1CC[C@H](NC(=O)c2cnc(N3CCOc4ccccc43)c(NC(=O)c3csc4ccccc34)c2)C1` (racemic) [I-349], for which the IC50 lay in the range of 0.5 to 1 µM.
The same measure, in the same setting: then `Cc1ccccc1[C@@H]1Nc2ccccc2[C@H]1CNC(=O)c1cc(F)cc(C(F)(F)F)c1` (racemic) [I-808, 3-fluoro-N-(((2R,3S)-2-(o-tolyl)indolin-3-yl)methyl)-5-(trifluoromethyl)benzamide], with 10 to 100 µM.
`CNC(=O)c1cnc(N[C@@H]2CCCC[C@@H]2CO)c(NC(=O)c2cc(F)cc(C(F)(F)F)c2)c1` (racemic) [I-812]: the half-inhibitory concentration (IC50) is 10 to 100 µM.
The compound `O=C(Nc1cc(-c2ccc3ncnn3c2)cnc1N[C@H]1CCCC[C@H]1CO)c1cc(F)cc(C(F)(F)F)c1` (racemic) [I-817] came in with an IC50 of 10 to 100 µM.
On the same count and under the same terms, then `O=C1C[C@H](CCO)[C@@H](CNC(=O)c2cc(F)cc(C(F)(F)F)c2)[C@H](c2cc(F)ccc2Cl)N1` (racemic) [I-821], with 10 to 100 µM; and `O=C(N[C@@H]1CCC[C@H](O)[C@H]1c1cc(F)ccc1Cl)c1cc(F)cc(C(F)(F)F)c1` (racemic) [I-823, N-[(1R,2S,3S)-2-(2-chloro-5-fluorophenyl)-3-hydroxycyclohexyl]-3-fluoro-5-(trifluoromethyl)benzamide], with 10 to 100 µM.
Still for that read-out and setting: then `CNC(=O)CN1CC(=O)N[C@H](c2cc(F)ccc2Cl)[C@H]1C(=O)NC1CCCC(C(F)(F)F)C1` (mixture of isomers) [I-825, trans-3-(2-chloro-5-fluorophenyl)-1-[(methylcarbamoyl)methyl]-5-oxo-N-[3-(trifluoromethyl)cyclohexyl]piperazine-2-carboxamide], with 10 to 100 µM; and `Cc1ccccc1Nc1ncc(C(=O)N[C@@H]2CCN(C)C2)cc1NC(=O)c1cc(F)cc(C(F)(F)F)c1` (stereo in doubt) [I-64], with 1 to 10 µM.
Still for that read-out and setting: then `CNC(=O)c1cnc(Nc2ccccc2C)c(NC(=O)[C@H](N)C2CCCCC2)c1` (stereo in doubt) [I-142], with 10 to 100 µM; and `CNC(=O)c1cnc(Nc2ccccc2C)c(NC(=O)[C@@H](N)C2CCCCC2)c1` (stereo in doubt) [I-159], with 10 to 100 µM; and `CNC(=O)c1cnc(Nc2ccccc2C)c(NC(=O)c2cc(F)cc(Br)c2)c1` [I-2], with 0.5 to 1 µM.
In turn, `COC(=O)c1cnc(Nc2ccccc2C)c(NC(=O)c2cc(F)cc(C(F)(F)F)c2)c1` [I-3] had a half-maximal inhibitory concentration (IC50) of 1 to 10 µM.
For the compound `CNC(=O)c1cnc(Nc2ccccc2C)c(NC(=O)c2cc3c(F)cc(F)cc3[nH]2)c1` [I-5], the IC50 lay within 10 to 100 µM.
The compound `Cc1ccccc1Nc1ncc(-c2cnn(C)c2)cc1NC(=O)c1cc(F)cc(C(F)(F)F)c1` [I-9] returned a half-inhibitory concentration (IC50) of 10 to 100 µM.
The same measure, in the same setting: then `CNC(=O)c1cnc(Nc2ccccc2C)c(N(S(=O)(=O)c2ccc(F)cc2C)S(=O)(=O)c2ccc(F)cc2C)c1` [I-10], with 10 to 100 µM.
Same read-out and setting: then `CNC(=O)c1cnc(Nc2ccccc2C)c(NC(=O)c2cc(Cl)ccc2OC)c1` [I-12], with 10 to 100 µM; and `CNC(=O)c1cnc(Nc2ccccc2C)c(N(S(=O)(=O)c2ccccc2)S(=O)(=O)c2ccccc2)c1` [I-13], with 10 to 100 µM; and `CNC(=O)c1cnc(Nc2ccccc2C)c(NC(=O)Cc2ccc(OCc3ccccc3)c(OCc3ccccc3)c2)c1` [I-14], with 10 to 100 µM.
Same read-out and setting: then `Cc1ccccc1Nc1ncc(C(=O)N2CCCC2)cc1NC(=O)c1cc(F)cc(C(F)(F)F)c1` [I-15], with 10 to 100 µM.
In turn, `Cc1ccccc1Nc1ncc(C2=CCNCC2)cc1NC(=O)c1cc(F)cc(C(F)(F)F)c1` [I-16] had an IC50 of 10 to 100 µM.
`Cc1ccccc1Nc1ncc(C(=O)O)cc1NC(=O)c1cc(F)cc(C(F)(F)F)c1` [I-17] had an IC50 of 1 to 10 µM.
On the same count and under the same terms, then `CNC(=O)c1cnc(Nc2ccccc2C)c(NC(=O)c2oc(C)nc2C)c1` [I-18], with 1 to 10 µM; and `Cc1cnc(Nc2ccccc2C)c(NC(=O)c2cc(F)cc(C(F)(F)F)c2)c1` [I-19], with 10 to 100 µM.
The same measure, in the same setting: then `CNC(=O)c1cnc(Nc2ccccc2C)c(NS(=O)(=O)c2ccccc2)c1` [I-20], with 1 to 10 µM; and `Cc1ccccc1Nc1ncc(C(=O)N2CCOCC2)cc1NC(=O)c1cc(F)cc(C(F)(F)F)c1` [I-22], with 10 to 100 µM.
Same read-out and setting: then `CNC(=O)c1cnc(Nc2ccccc2C)c(NCc2ccccc2)c1` [I-23], with 10 to 100 µM; and `CNC(=O)c1cnc(Nc2ccccc2)c([N+](=O)[O-])c1` [I-24], with 10 to 100 µM.
`CNC(=O)c1cnc(Nc2cccc(F)c2)c([N+](=O)[O-])c1` [I-25] showed an IC50 of 10 to 100 µM.
Same read-out and setting: then `CNC(=O)c1cnc(Nc2ccccc2C)c(NC(=O)Cc2c(C)nc(N)[nH]c2=O)c1` [I-26], with 10 to 100 µM; and `CNC(=O)c1cnc(Nc2cccc(F)c2)c(NC(=O)c2cc(F)cc(C(F)(F)F)c2)c1` [I-29], with 10 to 100 µM.
The same measure, in the same setting: then `CNC(=O)c1cnc(Nc2ccccc2)c(N)c1` [I-31], with 10 to 100 µM; and `CNC(=O)c1cnc(Nc2cccc(F)c2)c(N)c1` [I-32], with 10 to 100 µM.
Same read-out and setting: then `CNC(=O)c1cnc(Nc2ccccc2)c(NC(=O)c2cc(F)cc(C(F)(F)F)c2)c1` [I-33], with 10 to 100 µM; and `CNC(=O)c1cnc(Nc2ccccc2C)c(NCC2CC2)c1` [I-34], with 10 to 100 µM.
For `CNC(=O)c1cnc(Nc2ccccc2C)c(NC(=O)Cc2cccc(Cl)c2)c1` [I-35], the IC50 was in the range of 10 to 100 µM.
Still for that read-out and setting: then `CNC(=O)c1cnc(N2CCc3ccccc32)c(NC(=O)c2cc(F)cc(C(F)(F)F)c2)c1` [I-37], with 10 to 100 µM; and `CNC(=O)c1cnc(Nc2ccccc2C#N)c(NC(=O)c2cc(F)cc(C(F)(F)F)c2)c1` [I-38], with 10 to 100 µM; and `CNC(=O)c1cnc(Nc2cccc(C)c2)c(NC(=O)c2cc(F)cc(C(F)(F)F)c2)c1` [I-39], with 1 to 10 µM.
Same read-out and setting: then `CNC(=O)c1cnc(Nc2ccccc2C)c(NC(=O)c2cc3ccccc3o2)c1` [I-40], with 10 to 100 µM; and `CNC(=O)c1cnc(Nc2ccccc2C)c(NC(=O)c2ccccc2)c1` [I-43], with 10 to 100 µM.
The same measure, in the same setting: then `CNC(=O)c1cnc(Nc2ccccc2C)c(NC(=O)c2coc3ccccc23)c1` [I-44], with 1 to 10 µM.

Still in this experiment, the particulars now being: ADP-Glo biochemical PIK3CA kinase assay.
`CNC(=O)c1cnc(N[C@@H]2CCOC2)c(NC(=O)c2cc(F)cc(C(F)(F)F)c2)c1` (racemic) [I-554] showed an IC50 of 1 to 10 µM.
The same measure, in the same setting: then `CCOC(=O)[C@H]1CC[C@@H](NC(=O)c2cnc(Nc3ccccc3C)c(NC(=O)c3csc4ccccc34)c2)C1` (racemic) [I-653], with 0.5 to 1 µM; and `CCOC(=O)[C@@H]1CC[C@@H](NC(=O)c2cnc(Nc3ccccc3C)c(NC(=O)c3csc4ccccc34)c2)C1` (racemic) [I-654], with 1 to 10 µM.
Same read-out and setting: then `Cc1ccccc1[C@H]1NC(=O)C[C@@H]1C(=O)Nc1cc(F)cc(C(F)(F)F)c1` (racemic) [I-669], with 1 to 10 µM; and `O=C(N[C@H]1CCC[C@H]1N1CCOc2ccccc21)c1cc(F)cc(C(F)(F)F)c1` (racemic) [I-796], with 0.5 to 1 µM.
Consider `CNC(=O)c1cnc(N2CCC[C@@H]3CCC[C@@H]32)c(NC(=O)c2csc3ccccc23)c1` (single isomer, unassigned) [I-633], for which the IC50 fell in the range of 1 to 10 µM.
With `Cc1ccccc1Nc1ncc(C(=O)N[C@@H]2CC[C@@H](C(=O)O)C2)cc1NC(=O)c1csc2ccccc12` (single isomer, unassigned) [I-661], the IC50 was in the range of 1 to 10 µM.
